How the values were obtained:
[1] = test system: HAP1 MTAP-intact cell line; test: SDMA in-cell western assay, HAP1 MTAP-intact; assay type: cell-based; conditions: for IC50: Homo sapiens
Description: (§1) Table 1 also indicates IC50 values in an MTAP-isogenic cell line pair for exemplary compounds in an SDMA in-cell western assay (columns 7-8). HAP1 MTAP-intact is a cell line in which endogenous levels of MTAP are expressed, and HAP1 MTAP-deleted is an MTAP-null cell line. For Table 1, “a*” and “aa*” indicates an IC50 of <1 μM, “b*” and “bb*” indicates an IC50 equal to or greater than 1 μM but less than 10 μM, and “c*” and “cc*” indicates an IC50 of greater than or equal to 10 μM in the HAP1 MTAP-intact and the HAP1 MTAP-deleted assays, respectively. In column 9, “A*” indicates an IC50 ratio greater than or equal to 10 fold between the IC50 in the HAP1 MTAP-intact cell line and the HAP1 MTAP-deleted cell line; “B*” indicates an IC50 ratio greater than or equal to 3 fold but lower than 10 fold between the IC50 in the HAP1 MTAP-intact cell line and the HAP1 MTAP-deleted cell line; “C*” indicates an IC50 ratio of less than 3 fold between the IC50 in the HAP1 MTAP-intact cell line and the HAP1 MTAP-deleted cell line. Compounds with a ratio in the SDMA in-cell western assay of equal to or greater than 3 fold are considered MTAP-selective.

PRMT5 [2] = target: T1, PRMT5 (Homo sapiens, UniProt O14744); test: PRMT5 inhibition assay with SAM as cofactor; assay type: biochemical; conditions: against PRMT5 in the presence of SAM as cofactor
T1 construct: purchased Viva (custom protein)
T1 sequence (O14744 whole entry): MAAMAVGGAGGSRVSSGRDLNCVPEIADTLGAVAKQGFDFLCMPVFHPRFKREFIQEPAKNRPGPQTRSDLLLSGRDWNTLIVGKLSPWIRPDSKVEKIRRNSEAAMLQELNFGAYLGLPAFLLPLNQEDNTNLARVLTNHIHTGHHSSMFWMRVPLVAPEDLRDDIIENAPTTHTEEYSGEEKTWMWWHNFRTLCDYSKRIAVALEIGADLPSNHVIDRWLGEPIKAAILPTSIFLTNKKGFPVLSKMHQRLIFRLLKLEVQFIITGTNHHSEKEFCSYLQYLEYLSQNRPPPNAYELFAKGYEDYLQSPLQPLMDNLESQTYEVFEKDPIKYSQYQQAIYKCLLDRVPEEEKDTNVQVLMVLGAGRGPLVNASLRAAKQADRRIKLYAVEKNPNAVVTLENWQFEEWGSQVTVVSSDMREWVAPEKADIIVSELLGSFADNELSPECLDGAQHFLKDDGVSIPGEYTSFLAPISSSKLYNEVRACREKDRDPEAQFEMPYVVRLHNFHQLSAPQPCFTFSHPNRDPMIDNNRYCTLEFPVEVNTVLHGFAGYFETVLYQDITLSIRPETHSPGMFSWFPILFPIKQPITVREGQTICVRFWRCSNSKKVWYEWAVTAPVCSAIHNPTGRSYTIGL
T1 sequence (Q9BQA1 whole entry partner): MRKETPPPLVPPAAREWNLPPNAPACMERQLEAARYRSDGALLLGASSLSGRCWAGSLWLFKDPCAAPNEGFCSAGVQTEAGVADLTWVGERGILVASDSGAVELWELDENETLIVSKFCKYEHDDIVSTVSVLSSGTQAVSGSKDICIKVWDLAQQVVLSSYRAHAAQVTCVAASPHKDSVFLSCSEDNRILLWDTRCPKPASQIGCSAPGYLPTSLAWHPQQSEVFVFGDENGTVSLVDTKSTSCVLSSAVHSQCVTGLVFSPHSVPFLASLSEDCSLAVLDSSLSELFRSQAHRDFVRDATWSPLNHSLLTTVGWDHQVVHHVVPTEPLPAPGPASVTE
Source text: (§2) The Ki values can be calculated from the IC50 values as described in the Examples section. As detailed in the Examples section, for the assay performed in the presence of SAM, IC50=Ki×1.5 (Ki=IC50/1.5). For the assay performed in the presence of MTA, IC50=Ki×13.5 (Ki=IC50/13.5). Column 6 indicates the ratio between the Ki of compounds in the presence of SAM and the Ki of compounds in the presence of MTA

[3] = test system: HAP1 MTAP-deleted cell line; test: SDMA in-cell western assay, HAP1 MTAP-deleted; assay type: cell-based; conditions: for IC50: Homo sapiens, HAP1 MTAP-deleted (MTAP-null) cell line; for MTAP Intact/Deleted Ratio: IC50 ratio HAP1 MTAP-intact / HAP1 MTAP-deleted, >=3 fold considered MTAP-selective
Description: as §1

PRMT5 [4] = target: T1, PRMT5; test: PRMT5 inhibition assay with MTA as cofactor; assay type: biochemical; conditions: for IC50: against PRMT5 with MTA as cofactor; for SAM/MTA Ratio: ratio of Ki in the presence of SAM to Ki in the presence of MTA, Ki=IC50/1.5 (SAM), Ki=IC50/13.5 (MTA)
Source text: as §2

PRMT5 [5] = target: T1, PRMT5; test: PRMT5 inhibition assay with no cofactor; assay type: biochemical; conditions: against PRMT5 with no cofactor; read-out: No Co-factor IC50

IC50 [1] | IC50 (PRMT5 [2]) | IC50 [3] | IC50 (PRMT5 [4]) | IC50 (PRMT5 [5]) | HAP1 MTAP Intact IC50 [1] | Compound | MTAP Intact/Deleted Ratio [3] | SAM/MTA Ratio (PRMT5 [4])
1000 to 10000 nM | 50 to 500 nM | < 1000 nM | < 50 nM | 50 to 500 nM | – | CC(=O)N1CCC(Nc2cc(C(=O)NC[C@@H](O)[C@@H]3Cc4ccc(OCc5ocnc5C)cc4CN3)cc(N3CCCCC3)n2)CC1 [Compound 40, 2-[(1-acetyl-4-piperidyl)amino]-N-[(2R)-2-hydroxy-2-[(3S)-7-[(4-methyloxazol-5-yl)methoxy]-1,2,3,4-tetrahydroisoquinolin-3-yl]ethyl]-6-(1-piperidyl)pyridine-4-carboxamide] | A* (an IC50 ratio greater than or equal to 10 fold between the IC50 in the HAP1 MTAP-intact cell line and the HAP1 MTAP-deleted cell line) | A (a Ki ratio greater than or equal to 10 fold between the Ki in the presence of SAM and the Ki in the presence of MTA)
1000 to 10000 nM | 50 to 500 nM | < 1000 nM | 50 to 500 nM | 50 to 500 nM | – | Cc1ncoc1COc1ccc2c(c1)CN[C@H]([C@H](O)CNC(=O)c1cc(NC3CC4(CCC4)C3)nc(N3CCCCC3)n1)C2 [Compound 57, N-[(2R)-2-hydroxy-2-[(3S)-7-[(4-methyloxazol-5-yl)methoxy]-1,2,3,4-tetrahydroisoquinolin-3-yl]ethyl]-2-(1-piperidyl)-6-(spiro[3.3]heptan-2-ylamino)pyrimidine-4-carboxamide] | A* (an IC50 ratio greater than or equal to 10 fold between the IC50 in the HAP1 MTAP-intact cell line and the HAP1 MTAP-deleted cell line) | A (a Ki ratio greater than or equal to 10 fold between the Ki in the presence of SAM and the Ki in the presence of MTA)
≥ 10000 nM | 50 to 500 nM | 1000 to 10000 nM | < 50 nM | 50 to 500 nM | – | CC(=O)N1CCC(Nc2cc(C(=O)NC[C@@H](O)[C@@H]3Cc4ccc(OCc5ocnc5C)cc4CN3)ccn2)CC1 [Compound 44, 2-[(1-acetyl-4-piperidyl)amino]-N-[(2R)-2-hydroxy-2-[(3S)-7-[(4-methyloxazol-5-yl)methoxy]-1,2,3,4-tetrahydroisoquinolin-3-yl]ethyl]pyridine-4-carboxamide] | B* (an IC50 ratio greater than or equal to 3 fold but lower than 10 fold between the IC50 in the HAP1 MTAP-intact cell line and the HAP1 MTAP-deleted cell line) | A (a Ki ratio greater than or equal to 10 fold between the Ki in the presence of SAM and the Ki in the presence of MTA)
< 1000 nM | 50 to 500 nM | < 1000 nM | < 50 nM | 50 to 500 nM | – | COc1cc(C(=O)NC[C@@H](O)[C@@H]2Cc3ccc(OCc4ocnc4C)cc3CN2)cc(NC2CCC2)n1 [Compound 26, 2-(cyclobutylamino)-N—((R)-2-hydroxy-2-((S)-7-((4-methyloxazol-5-yl)methoxy)-1,2,3,4-tetrahydroisoquinolin-3-yl)ethyl)-6-methoxyisonicotinamide] | C* (an IC50 ratio of less than 3 fold between the IC50 in the HAP1 MTAP-intact cell line and the HAP1 MTAP-deleted cell line) | A (a Ki ratio greater than or equal to 10 fold between the Ki in the presence of SAM and the Ki in the presence of MTA)
< 1000 nM | 50 to 500 nM | < 1000 nM | < 50 nM | 50 to 500 nM | – | Cc1ncoc1COc1ccc2c(c1)CN[C@H]([C@H](O)CNC(=O)c1ccc(OC3CCN(Cc4ccncc4)CC3)cc1)C2 [Compound 23, N—((R)-2-hydroxy-2-((S)-7-((4-methyloxazol-5-yl)methoxy)-1,2,3,4-tetrahydroisoquinolin-3-yl)ethyl)-4-((1-(pyridin-4-ylmethyl)piperidin-4-yl)oxy)benzamide] | B* (an IC50 ratio greater than or equal to 3 fold but lower than 10 fold between the IC50 in the HAP1 MTAP-intact cell line and the HAP1 MTAP-deleted cell line) | A (a Ki ratio greater than or equal to 10 fold between the Ki in the presence of SAM and the Ki in the presence of MTA)
– | 500 to 5000 nM | – | 500 to 5000 nM | ≥ 5000 nM | – | CCCN(C)c1nc(NC2COC2)cc(C(=O)NC[C@@H](O)[C@@H]2Cc3ccc(OCc4ocnc4C)cc3CN2)n1 [Compound 38, N—((R)-2-hydroxy-2-((S)-7-((4-methyloxazol-5-yl)methoxy)-1,2,3,4-tetrahydroisoquinolin-3-yl)ethyl)-2-(methyl(propyl)amino)-6-(oxetan-3-ylamino)pyrimidine-4-carboxamide] | – | A (a Ki ratio greater than or equal to 10 fold between the Ki in the presence of SAM and the Ki in the presence of MTA)
– | 500 to 5000 nM | – | 500 to 5000 nM | ≥ 5000 nM | – | COCCN(C)c1nc(NC2COC2)cc(C(=O)NC[C@@H](O)[C@@H]2Cc3ccc(OCc4ocnc4C)cc3CN2)n1 [Compound 37, N—((R)-2-hydroxy-2-((S)-7-((4-methyloxazol-5-yl)methoxy)-1,2,3,4-tetrahydroisoquinolin-3-yl)ethyl)-2-((2-methoxyethyl)(methyl)amino)-6-(oxetan-3-ylamino)pyrimidine-4-carboxamide] | – | A (a Ki ratio greater than or equal to 10 fold between the Ki in the presence of SAM and the Ki in the presence of MTA)
1000 to 10000 nM | – | < 1000 nM | < 50 nM | 50 to 500 nM | – | Cc1ncoc1COc1ccc2c(c1)CN[C@H]([C@H](O)CNC(=O)c1cc(NC3CCC3)nc(C3CCN(C(C)C)CC3)c1)C2 [Compound 78] | A* (an IC50 ratio greater than or equal to 10 fold between the IC50 in the HAP1 MTAP-intact cell line and the HAP1 MTAP-deleted cell line) | –
– | – | < 1000 nM | < 50 nM | 50 to 500 nM | B* | CC(=O)N1CCC(Nc2cc(C(=O)NC[C@@H](O)[C@@H]3Cc4ccc(OCc5ocnc5C)cc4CN3)nc(N3CCN(C(C)C)CC3)n2)CC1 [Compound 72] | A* (an IC50 ratio greater than or equal to 10 fold between the IC50 in the HAP1 MTAP-intact cell line and the HAP1 MTAP-deleted cell line) | –
1000 to 10000 nM | – | < 1000 nM | < 50 nM | 50 to 500 nM | – | COCCN(C)c1cc(C(=O)NC[C@@H](O)[C@@H]2Cc3ccc(OCc4ocnc4C)cc3CN2)cc(NC2CC3(CCC3)C2)n1 [Compound 68] | A* (an IC50 ratio greater than or equal to 10 fold between the IC50 in the HAP1 MTAP-intact cell line and the HAP1 MTAP-deleted cell line) | –
≥ 10000 nM | – | < 1000 nM | < 50 nM | 50 to 500 nM | – | COCCN(C)c1nc(NC2CN(C(C)=O)C2)cc(C(=O)NC[C@@H](O)[C@@H]2Cc3ccc(OCc4ocnc4C)cc3CN2)n1 [Compound 82] | A* (an IC50 ratio greater than or equal to 10 fold between the IC50 in the HAP1 MTAP-intact cell line and the HAP1 MTAP-deleted cell line) | –
≥ 10000 nM | – | 1000 to 10000 nM | < 50 nM | < 50 nM | – | CC(=O)N1CCC(Nc2cc(C(=O)NC[C@@H](O)[C@@H]3Cc4ccc(OCc5ocnc5C)cc4CN3)cc(N3CCN(C(C)C)CC3)n2)CC1 [Compound 71] | B* (an IC50 ratio greater than or equal to 3 fold but lower than 10 fold between the IC50 in the HAP1 MTAP-intact cell line and the HAP1 MTAP-deleted cell line) | –

Compound | IC50 [1] | IC50 (PRMT5 [2]) | IC50 [3] | IC50 (PRMT5 [4]) | IC50 (PRMT5 [5]) | HAP1 MTAP Intact IC50 [1] | MTAP Intact/Deleted Ratio [3] | SAM/MTA Ratio (PRMT5 [4])
CCOc1cc(C(=O)N2C3CCC2COC3)ccc1C(=O)NC[C@@H](O)[C@@H]1Cc2ccc(OCc3ocnc3C)cc2CN1 [Compound 12, 4-(3-oxa-8-azabicyclo[3.2.1]octane-8-carbonyl)-2-ethoxy-N—((R)-2-hydroxy-2-((S)-7-((4-methyloxazol-5-yl)methoxy)-1,2,3,4-tetrahydroisoquinolin-3-yl)ethyl)benzamide] | < 1000 nM | 50 to 500 nM | < 1000 nM | 50 to 500 nM | 500 to 5000 nM | – | B* (an IC50 ratio greater than or equal to 3 fold but lower than 10 fold between the IC50 in the HAP1 MTAP-intact cell line and the HAP1 MTAP-deleted cell line) | A (a Ki ratio greater than or equal to 10 fold between the Ki in the presence of SAM and the Ki in the presence of MTA)

Source: patent US12403137B2, “Compounds and methods of use” (Tango Therapeutics, Inc., priority 2019, dated 2025)
